Assay results: publication PMC5349910, “Discovery of BPR1K871, a quinazoline based, multi-kinase inhibitor for the treatment of AML and solid tumors: Rational design, synthesis, in vitro and in vivo evaluation” (Oncotarget, 2016)
Converted amounts (≈) assume the structure as drawn. “Also recorded” adds a separate entry of the source. Read-outs that look alike come from different tables or passages of the source.

Assays:
MV4-11 cells = assay: MTS cell viability assay, MV4-11; format: cell-based, human; conditions: MTS, 72 h, AML-FLT3-ITD (homozygous), supplement values ± SEM, read-out: MV4-11 EC50
Description: The MTS cell viability assay was conducted as previously described. The MOLM-13 human leukemia cell line was obtained from the German Resource Centre for Biological Material (DSMZ, Braunschweig, Germany); the MV4-11 cell line was purchased from the American Type Culture Collection (ATCC, Manassas, VA, USA). […] To determine cell viability after drug treatment, assay for MOLM-13 and MV4-11 was performed by seeding 10000 cells per well in a 96-well culture plate. […] After 16 h, cells were then treated with vehicle or various concentrations of compound in medium for 72 h. Viable cells were quantified using the MTS method (Promega, Madison, WI, USA) according to the manufacturer's recommended protocol. Results were determined by measuring the absorbance at 490 nm using a plate reader (Victor2; PerkinElmer, Shelton, CT, USA).

[1] = system: Detroit 551 (human normal skin fibroblast cells); assay: MTS cell viability assay, Detroit-551; format: cell-based; conditions: 72 h
Description: The MTS cell viability assay was conducted as previously described. The MOLM-13 human leukemia cell line was obtained from the German Resource Centre for Biological Material (DSMZ, Braunschweig, Germany); the MV4-11 cell line was purchased from the American Type Culture Collection (ATCC, Manassas, VA, USA). Both the leukemia cell lines were maintained in RPMI 1640 medium supplemented with 10% fetal bovine serum (FBS), 10 UmL^-1 penicillin, and […] streptomycin at 37°C and 5% CO2. The Detroit-551, COLO205, and Mia-PaCa2 cell lines were purchased from the American Type Culture Collection (ATCC, Manassas, VA, USA) and cultured according to instructions of ATCC. To determine cell viability after drug treatment, assay for MOLM-13 and MV4-11 was performed by seeding 10000 cells per well in a 96-well culture plate. Detroit-551, COLO205, and Mia-PaCa2 were seeded at density of 2500, 4000, and 3750 cells per well, respectively. After 16 h, cells were then treated with vehicle or various concentrations of compound in medium for 72 h. Viable cells were quantified using the MTS method (Promega, Madison, WI, USA) according to the manufacturer's recommended protocol. Results were determined by measuring the absorbance at 490 nm using a plate reader (Victor2; PerkinElmer, Shelton, CT, USA).

K562 cells = assay: Anti-proliferative activity, K562; format: cell-based; conditions: Homo sapiens, K562; CML-Bcr-Abl FLT3-negative; supplement values ± SEM; read-out: K562 EC50
HCC827 cells = assay: Anti-proliferative activity, HCC827; format: cell-based; conditions: Homo sapiens, HCC827; NSCLC-EGFR L858R; supplement values ± SEM; read-out: HCC827 EC50
H1975 cells = assay: Anti-proliferative activity, H1975; format: cell-based; conditions: Homo sapiens, NCI-H1975; NSCLC-EGFR LR/TM; supplement values ± SEM; read-out: H1975 EC50
HCT-116 cells = assay: Anti-proliferative activity, HCT-116; format: cell-based, human; conditions: HCT-116; Human Colon Cancer; supplement values ± SEM; read-out: HCT-116 EC50
Hep 3B cells = assay: Anti-proliferative activity, Hep 3B; format: cell-based; conditions: Hep3B; Human Hepatoma
MKN-45 cells = assay: Anti-proliferative activity, MKN-45; format: cell-based; conditions: Human Gastric Cancer
Aqueous solubility = format: physicochemical
MV4-11 tumor xenograft = assay: MV4-11 subcutaneous xenograft model; format: in vivo; conditions: nude mice, iv 1, 3 or 10 mg/kg days 1–5 and 8–12; hydrochloride salt; p < 0.05
Description: Based on the potent in vitro anti-proliferative activity of BPR1K871, it was planned to investigate the in vivo efficacy. […] Subsequently, based on the PK study, we evaluated the acute toxicity of BPR1K871 in ICR mice (n = 3) by iv administration. […] Next, the antitumor activity of BPR1K871 was evaluated through IV route in MOLM-13 and MV4-11 xenograft models (Figure 5). For this, nude mice were inoculated subcutaneously with MOLM-13 and MV4-11 cells in the left flank. […] For MOLM-13 model, BPR1K871 was injected intravenously at 10 mg/kg daily for 5 days (on days 1–5); also BPR1K871 was intravenously administrated at 3 and 1 mg/kg once a day for two continuous weeks (on days 1–5 and 8–12). For MV4-11 model, BPR1K871 was intravenously administrated at 10, 3 and 1 mg/kg once a day for two continuous weeks (on days 1–5 and 8–12).

hERG = target: T1, hERG (Homo sapiens, UniProt Q12809); assay: hERG inhibition assay; conditions: at 10 μM; performed by Ricerca Biosciences
T1 construct: Ricerca Biosciences, LLC
Description: Considering the in vivo efficacy in different cancer models, particularly in pancreatic cancer, it is worthwhile to further investigate BPR1K871; pancreatic and liver cancer are the most fatal of cancers and 5-year relative survival for patients with pancreatic cancer is reported to be just 8% [43, 44].
[45] hERG inhibition was performed by Ricerca Biosciences, LLC

[2] = Microsomal stability assay, mouse; format: in vitro ADME
FLT3^ITD = assay: KINOMEScan, FLT3 ITD; conditions: 1000 nM
FLT3^K663Q = FLT3^K663Q (Homo sapiens, UniProt P36888, K663Q); assay: KINOMEScan, FLT3 K663Q; conditions: read-out: FLT3^K663Q % control
FLT3^N841I = FLT3^N841I (Homo sapiens, UniProt P36888, N841I); assay: KINOMEScan, FLT3 N841I; conditions: read-out: FLT3^N841I % control
KIT^V559D,V654A = KIT^V559D,V654A (Homo sapiens, UniProt P10721, V559D/V654A); assay: KINOMEScan, KIT V559D,V654A; conditions: read-out: KIT^V559D,V654A % control
Chain of KIT^V559D,V654A (P10721 26-976 V559D/V654A): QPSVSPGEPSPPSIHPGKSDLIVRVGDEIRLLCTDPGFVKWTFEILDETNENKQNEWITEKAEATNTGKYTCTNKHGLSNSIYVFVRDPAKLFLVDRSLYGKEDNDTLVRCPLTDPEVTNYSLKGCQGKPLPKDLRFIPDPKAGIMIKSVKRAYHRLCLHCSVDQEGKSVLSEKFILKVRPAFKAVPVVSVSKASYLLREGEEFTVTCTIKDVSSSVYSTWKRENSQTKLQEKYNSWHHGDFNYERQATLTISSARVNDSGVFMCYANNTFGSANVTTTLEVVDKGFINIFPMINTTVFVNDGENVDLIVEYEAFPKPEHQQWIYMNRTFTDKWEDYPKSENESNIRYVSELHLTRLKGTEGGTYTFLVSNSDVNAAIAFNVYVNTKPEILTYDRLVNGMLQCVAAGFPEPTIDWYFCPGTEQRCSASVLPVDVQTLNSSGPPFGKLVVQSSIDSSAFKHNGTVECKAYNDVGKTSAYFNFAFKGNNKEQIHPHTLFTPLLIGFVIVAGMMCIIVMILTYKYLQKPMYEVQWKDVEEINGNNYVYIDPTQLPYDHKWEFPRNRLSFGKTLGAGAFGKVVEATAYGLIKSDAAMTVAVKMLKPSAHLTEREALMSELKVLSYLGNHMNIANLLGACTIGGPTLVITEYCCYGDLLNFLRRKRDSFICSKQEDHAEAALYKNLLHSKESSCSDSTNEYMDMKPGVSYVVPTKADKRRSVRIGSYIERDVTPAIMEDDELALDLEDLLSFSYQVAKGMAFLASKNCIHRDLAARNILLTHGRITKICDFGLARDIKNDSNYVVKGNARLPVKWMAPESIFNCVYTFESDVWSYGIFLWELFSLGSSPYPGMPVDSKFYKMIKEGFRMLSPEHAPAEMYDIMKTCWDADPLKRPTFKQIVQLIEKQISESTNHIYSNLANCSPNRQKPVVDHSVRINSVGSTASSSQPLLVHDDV

T1 sequence (Q12809 whole entry): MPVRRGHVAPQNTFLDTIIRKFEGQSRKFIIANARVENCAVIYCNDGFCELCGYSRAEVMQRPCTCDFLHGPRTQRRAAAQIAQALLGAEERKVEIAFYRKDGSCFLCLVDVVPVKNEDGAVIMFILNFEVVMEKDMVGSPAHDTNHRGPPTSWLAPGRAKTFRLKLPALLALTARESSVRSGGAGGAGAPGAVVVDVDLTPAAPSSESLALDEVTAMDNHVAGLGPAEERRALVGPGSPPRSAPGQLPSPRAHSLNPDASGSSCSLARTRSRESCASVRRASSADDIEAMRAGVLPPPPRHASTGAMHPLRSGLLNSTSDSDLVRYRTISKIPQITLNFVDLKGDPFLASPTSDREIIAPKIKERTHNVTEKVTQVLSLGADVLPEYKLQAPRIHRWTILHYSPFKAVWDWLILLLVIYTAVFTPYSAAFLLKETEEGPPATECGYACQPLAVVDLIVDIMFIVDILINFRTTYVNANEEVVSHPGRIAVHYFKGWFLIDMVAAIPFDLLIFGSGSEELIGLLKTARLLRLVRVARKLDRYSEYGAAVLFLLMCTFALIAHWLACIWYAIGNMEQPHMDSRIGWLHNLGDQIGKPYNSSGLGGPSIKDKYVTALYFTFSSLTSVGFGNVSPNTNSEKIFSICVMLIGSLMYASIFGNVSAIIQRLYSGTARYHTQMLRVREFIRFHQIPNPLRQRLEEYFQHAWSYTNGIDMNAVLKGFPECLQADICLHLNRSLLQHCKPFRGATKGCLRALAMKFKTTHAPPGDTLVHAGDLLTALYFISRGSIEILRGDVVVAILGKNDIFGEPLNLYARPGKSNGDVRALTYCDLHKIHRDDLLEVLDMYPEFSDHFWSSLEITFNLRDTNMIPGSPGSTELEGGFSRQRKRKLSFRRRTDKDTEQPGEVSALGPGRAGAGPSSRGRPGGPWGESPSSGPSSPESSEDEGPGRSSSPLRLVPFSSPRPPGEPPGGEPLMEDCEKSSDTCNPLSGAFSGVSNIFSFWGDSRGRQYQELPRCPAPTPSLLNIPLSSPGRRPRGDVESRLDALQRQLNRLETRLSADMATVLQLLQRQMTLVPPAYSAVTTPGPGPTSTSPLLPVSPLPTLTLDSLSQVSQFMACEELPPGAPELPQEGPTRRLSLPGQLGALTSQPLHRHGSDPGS

For `CN(C)CCCOc1ccc2c(NCCc3cnc(NC(=O)Nc4cccc(Cl)c4)s3)ncnc2c1` [BPR1K871, 1-(3-Chlorophenyl)-3-(5-(2-((7-(3-(dimethylamino)propoxy)quinazolin-4-yl)amino)ethyl)thiazol-2-yl)urea], the EC50 (MV4-11 cells; Homo sapiens, MV4-11, 72 h) was ~5 nM, the EC50 (MV4-11 cells; listed as 10 (BPR1K871)) was 4 nM and the EC50 [1] was 4000 nM. For the same compound, the EC50 (K562 cells) was 2300 nM, the EC50 (HCC827 cells) was 257 nM and the EC50 (H1975 cells) was 495 nM. The EC50 (HCT-116 cells) was 141 nM, the EC50 (Hep 3B cells) was 2470 nM and the EC50 (MKN-45 cells) was 355 nM. The solubility (Aqueous solubility; in water) was 0.124 µg/mL (≈ 0.236 µM), the “improvement of aqueous solubility in pH ≤ 5.2 buffer solution compared to water” value (Aqueous solubility; pH ≤ 5.2 buffer solution vs water) was “up to 4000 fold” and the “growth / volume of MV4-11 tumor xenograft vs vehicle” value (MV4-11 tumor xenograft) was “significantly reduced; also recorded: inhibited”. The hERG inhibition (hERG) was 66%, the “microsomal stability, remaining at 30 min” value [2] was > 30% and the “FLT3^ITD % control” value (FLT3^ITD) was < 5.2 % control. For the same compound, the remaining binding at 1 µM (FLT3^K663Q) was < 5.2%, the remaining binding at 1 µM (FLT3^N841I) was < 5.2% and the remaining binding at 1 µM (KIT^V559D,V654A) was < 4%.
